Measured values from patent publication US20140031432A1, “TREATMENT OF MITOCHONDRIAL DISEASES WITH VITAMIN K” (Ampere Life Sciences, Inc., priority 2010, published 2014).

Columns and labels:
Type in all cases: cell-based
[1] = test system: human dermal fibroblasts from Parkinson's disease patients; assay: Rescue of fibroblasts from Parkinson's disease patients from oxidative stress (Example D); conditions: Fibroblast, Parkinson's disease cells (Coriell AG20439), screen as in Example A (BSO stress), read-out: protection against PD, EC50
Description: [The source words this procedure for another cell line and reports this cell line under the same test.] (§1) Test samples and solvent controls were tested for their ability to rescue FRDA fibroblasts stressed by addition of L-buthionine-(S,R)-sulfoximine (BSO), as described in Jauslin et al., Hum. Mol. Genet. 11(24):3055 (2002), Jauslin et al., FASEB J. 17:1972-4 (2003), and International Patent Application WO 2004/003565. […] This specific BSO-mediated cell death can be prevented by administration of antioxidants or molecules involved in the antioxidant pathway, such as alpha-tocopherol, selenium, or small molecule glutathione peroxidase mimetics. However, antioxidants differ in their potency, i.e. the concentration at which they are able to rescue BSO-stressed FRDA fibroblasts.
(§2) MEM (a medium enriched in amino acids and vitamins, catalog no. 1-31F24-I) and Medium 199 (M199, catalog no. 1-21F22-I) with Earle's Balanced Salts, without phenol red, were purchased from Bioconcept. Fetal Calf Serum was obtained from PAA Laboratories. Basic fibroblast growth factor and epidermal growth factor were purchased from PeproTech. […]
(§3) 100 μl of PBS containing 1.2 μM Calcein AM were then added to each well. […] After that time the PBS was discarded, the plate gently tapped on a paper towel and fluorescence (excitation/emission wavelengths of 485 nm and 525 nm, respectively) was read on a Gemini fluorescence reader. […]

[2] = test system: human dermal fibroblasts from Huntington's patients; assay: Rescue of fibroblasts from Huntington's patients from oxidative stress (Example B); conditions: Fibroblast, Huntington's cells (Coriell GM 04281), screen as in Example A (BSO stress), read-out: protection against Huntington's, EC50
Description: [The source words this procedure for another cell line and reports this cell line under the same test.] as §1
(§4) MEM (a medium enriched in amino acids and vitamins, catalog no. 1-31F24-I) and Medium 199 (M199, catalog no. 1-21F22-I) with Earle's Balanced Salts, without phenol red, were purchased from Bioconcept. Fetal Calf Serum was obtained from PAA Laboratories. Basic fibroblast growth factor and epidermal growth factor were purchased from PeproTech. Penicillin-streptomycin-glutamine mix, L-buthionine (S,R)-sulfoximine, and insulin from bovine pancreas were purchased from Sigma. Calcein AM was purchased from Molecular Probes. Cell culture medium was made by combining 125 ml M199 EBS, 50 ml Fetal Calf Serum, 100 U/ml penicillin, 100 μg/ml streptomycin, 2 mM glutamine, 10 μg/ml insulin, 10 ng/ml EGF, and 10 ng/ml bFGF; MEM EBS was added to make the volume up to 500 ml. A 10 mM BSO solution was prepared by dissolving 444 mg BSO in 200 ml of medium with subsequent filter-sterilization. During the course of the experiments, this solution was stored at +4° C. The cells were obtained from the Coriell Cell Repositories (Camden, N.J.; repository number GM04078) and grown in 10 cm tissue culture plates. Every third day, they were split at a 1:3 ratio. […]
as §3

[3] = test system: Human dermal fibroblasts from Friedreich's ataxia patients; assay: Rescue of BSO-stressed FRDA fibroblasts (Example A); conditions: FRDA fibroblasts (Coriell GM04078), 1 mM BSO, 48 h, Calcein AM viability, read-out: protection against FRDA, EC50
Description: as §1, §4, §3

[4] = test system: human dermal fibroblasts from LHON patients; assay: Rescue of fibroblasts from LHON patients from oxidative stress (Example C); conditions: Fibroblast, LHON cells (Coriell GM03858), screen as in Example A (BSO stress), read-out: protection against LHON, EC50
Description: [The source words this procedure for another cell line and reports this cell line under the same test.] as §1, §2, §3

Row | Compound | EC50 [1] | EC50 [2] | EC50 [3] | EC50 [4]
1 | CC1=CC(=O)c2ccccc2C1=O [2-methylnaphthalene-1,4-dione] | < 500 nM | < 500 nM | < 1000 nM | < 300 nM
2 | CC(C)=CCCC(C)=CCC1=C(C)C(=O)c2ccccc2C1=O [2-(3,7-dimethylocta-2,6-dien-1-yl)-3-methylnaphthalene-1,4-dione] | < 500 nM | < 500 nM | < 1000 nM | < 300 nM
3 | CC(C)=CCC/C(C)=C/CC/C(C)=C/CC/C(C)=C/CC1=C(C)C(=O)c2ccccc2C1=O [2-methyl-3-[3,7,11,15-tetramethylhexadeca-2,6,10,14-tetraen-1-yl]naphthoquinone] |  | < 500 nM | < 1000 nM | 
